Source: PMC4754898, “Discovery of Radioiodinated Monomeric Anthraquinones as a Novel Class of Necrosis Avid Agents for Early Imaging of Necrotic Myocardium” (Scientific Reports, 2016)

Tests used:
[1] = In vitro stability of 131I-anthraquinones in rat serum by TLC; format: in vitro ADME; settings: 37 °C, 24 h
Experimental: Iodogen ([…]-3a, 6a-diphenylglycouracil; Sigma, St. Louis, MO) was dissolved in dichloromethane and deposited on the wall of tubes as a thin film. Radioiodination was initiated by adding dimethylsulfoxide (DMSO) solutions of each anthraquinone (1.25 mg/mL) and Na^131I solutions (4:1, v/v) into Iodogen-coated tube, adjusting pH with phosphate buffered saline (PBS, pH 7.4). Then these mixtures were shaken and incubated at 45 °C for 2–4 h, and radiochemical purity was determined by thin-layer chromatography (TLC) using Whatman No.1 filter paper and 0.1 M hydrochloric acid as the developing solvent. Then the solvent was evaporated, the paper was cut in half and measured the radioactivity by direct γ-counting (WIZARD1470; PerkinElmer, USA). For obtaining the injectants, these mixtures were diluted with propylene glycol and polyethylene glycol 400 (1:1, v/v), respectively.
In vitro stability of eight ^131I-anthraquinones were tested in rat serum, 0.1 mL injectant was added to 0.9 mL rat serum (1:9, v/v) and incubated at 37 °C. Then radiolabeling stability was determined by TLC using the procedure described above at the time points of 0.5 h, 6 h, 12 h and 24 h, respectively.

necrotic muscle [2] = experiment: Biodistribution in mice with muscular necrosis (gamma counting); format: in vivo, Kunming mice; settings: model mice, 0.37 MBq i.v.
Experimental: All animals were given 0.12% potassium iodide in drinking water from 3 days before the experiment till the end of experiment to protect the thyroid gland from taking up free ^131I.
Each mouse was intramuscularly injected with 0.1 mL absolute alcohol in the left hind limb to induce muscular necrosis.
At least 12 h after recovery from surgery, each model mouse was intravenously administrated with 0.37 MBq of ^131I-anthraquinones and each rat was intravenously injected with 3.7 MBq of ^131I-rhein or ^131I-Hyp for pharmacological evaluations. All animals were intravenously administered with 0.1 ml of 1% Evans blue solution for intravital staining of necrosis that helped to selectively sample bluish necrotic tissues for radioactivity quantification.
One hundred and twenty model mice were randomly divided into 24 groups for eight tracers (n = 5 per compound and per time point). Mice were sacrificed by cervical dislocation at 2 h, 12 h and 24 h after administration. Necrotic and normal tissues of interest (blood, thyroid, lung, heart, liver, spleen, stomach, kidney, viable/necrotic muscle) were sampled, and wet weighed with the radioactivity measured by a γ-counter. Background radiation and physical decay were corrected during counting. The results were expressed as percentage of the injected dose per gram of tissue (%ID/g). Ratios of radioactivity concentrations between in necrotic and viable muscle were calculated.

necrotic muscle [3] = experiment: TTC staining and quantitative autoradiography of necrotic and viable muscle; parameters: species or system Kunming mice; settings: mouse, in vivo
Experimental: The necrotic muscles were stained in 2% TTC solution at 37 °C for 15 min and digitally photographed, then cut into 50 μm frozen sections with a cryotome (Shandon FSE, Thermo Fisher Scientific Co., Waltham, MA, USA) for autoradiography. Autoradiographs of these sections were obtained by exposure to a high-performance storage phosphor screen (Cyclone; Canberra-Packard, Ontario, Canada) for 6–48 h and digitally photographed with Optiquant software (Pacard, Packard Meriden, CT, USA). Relative tracer concentrations in necrotic muscles were evaluated by regions of interest analysis and the results were compared with that from the corresponding viable muscles.

[4] = In vitro stability of 131I-rhein in rat serum by radio-HPLC; format: in vitro ADME; settings: 37 °C, 24 h
Experimental: Reversed-phase high performance liquid chromatography (RP-HPLC) was equipped with Waters 2998 PDA detector, HERM LB500 radiometric detector (Berthold Technologies, Germany), a pump (Waters 2695) and a Alltima C18 column (250 × 4.6 mm, 5 μm, GRACE). The mobile phase was methanol/0.1% phosphoric acid in water (80:20, v/v), the flow rate was 1.0 mL/min and the temperature of column was 30 °C. All solvents used for HPLC analysis were HPLC grade.
^131I-rhein was incubated in rat serum at 37 °C for 24 h, and the mixture was mixed with methanol at a ratio of 2:3 and shaken. After centrifuging the mixture at 12000 rpm for 10 min, the supernatant was collected and passed through 0.22-μm pore-size filters (Membrana, Wuppertal, NRW, Germany) for in vitro stability analysis by radio-HPLC as described above.

[5] = Pharmacokinetics (blood clearance) in normal rats; format: in vivo, Sprague-Dawley rats
Experimental: For the pharmacokinetic study, six healthy rats were intravenously injected with ^131I-rhein under anesthesia. The blood samples (10 μL) were collected by means of a tail incision at 5 min, 10 min, 30 min, 1 h, 2 h, 4 h, 6 h, 8 h, 10 h, 12 h and 24 h after administration. The radioactivity of blood samples was measured and the results were expressed as megabecquerel per liter (MBq/L). The blood pharmacokinetic parameters of the radiotracer were analyzed by using the non-compartmental analysis of Drug and Statistics for windows 2.0 software.

necrotic myocardium [6] = experiment: SPECT/CT imaging of rats with reperfused MI or sham operation; format: in vivo, Sprague-Dawley rats; settings: 6 h after administration
infarcted myocardium = experiment: Autoradiography of MI heart sections from model rats; format: in vivo, Sprague-Dawley rats; settings: 50 μm frozen sections
necrotic myocardium [7] = settings: rat, in vivo, iv

O=C1c2ccccc2C(=O)c2c1ccc([131I])c2O [^131I-1-hydroxyanthraquinone]
stability after incubation in rat plasma (TLC) [1]: 87.93% ± 0.45%
Blood uptake (necrotic muscle [2]; 2 h after administration): 3.19 ± 0.35 %ID/g
Heart uptake (necrotic muscle [2]; 2 h after administration): 0.58 ± 0.06 %ID/g
Kidney uptake (necrotic muscle [2]; 2 h after administration): 1.64 ± 0.17 %ID/g
Liver uptake (necrotic muscle [2]; 2 h after administration): 1.07 ± 0.11 %ID/g
Lung uptake (necrotic muscle [2]; 2 h after administration): 1.12 ± 0.09 %ID/g
N/V ratio (necrotic muscle/viable muscle) (necrotic muscle [2]; 2 h after administration): 3.71 ± 0.37
Necrotic.m (necrotic muscle) uptake (necrotic muscle [2]; 2 h after administration): 2.75 ±0.31 %ID/g
Spleen uptake (necrotic muscle [2]; 2 h after administration): 1.04 ± 0.08 %ID/g
Stomach uptake (necrotic muscle [2]; 2 h after administration): 1.40 ± 0.13 %ID/g
Thyroid uptake (necrotic muscle [2]; 2 h after administration): 1.53 ± 0.21 %ID/g
Viable.m (viable muscle) uptake (necrotic muscle [2]; 2 h after administration): 0.74 ± 0.05 %ID/g
Blood uptake (necrotic muscle [2]; 12 h after administration): 0.66 ± 0.04 %ID/g
Heart uptake (necrotic muscle [2]; 12 h after administration): 0.11 ± 0.01 %ID/g
Kidney uptake (necrotic muscle [2]; 12 h after administration): 0.37 ± 0.02 %ID/g
Liver uptake (necrotic muscle [2]; 12 h after administration): 0.24 ± 0.03 %ID/g
Lung uptake (necrotic muscle [2]; 12 h after administration): 0.33 ± 0.04 %ID/g
N/V ratio (necrotic muscle/viable muscle) (necrotic muscle [2]; 12 h after administration): 4.22 ± 0.02
Necrotic.m (necrotic muscle) uptake (necrotic muscle [2]; 12 h after administration): 0.59 ± 0.05 %ID/g
Spleen uptake (necrotic muscle [2]; 12 h after administration): 0.26 ± 0.02 %ID/g
Stomach uptake (necrotic muscle [2]; 12 h after administration): 0.82 ± 0.09 %ID/g
Thyroid uptake (necrotic muscle [2]; 12 h after administration): 0.46 ± 0.03 %ID/g
Viable.m (viable muscle) uptake (necrotic muscle [2]; 12 h after administration): 0.14 ± 0.01 %ID/g
Blood uptake (necrotic muscle [2]; 24 h after administration): 0.07 ± 0.01 %ID/g
Heart uptake (necrotic muscle [2]; 24 h after administration): 0.02 ± 0.00 %ID/g
Kidney uptake (necrotic muscle [2]; 24 h after administration): 0.04 ± 0.01 %ID/g
Liver uptake (necrotic muscle [2]; 24 h after administration): 0.08 ± 0.01 %ID/g
Lung uptake (necrotic muscle [2]; 24 h after administration): 0.05 ± 0.01 %ID/g
N/V ratio (necrotic muscle/viable muscle) (necrotic muscle [2]; 24 h after administration): 5.83 ± 0.29
Necrotic.m (necrotic muscle) uptake (necrotic muscle [2]; 24 h after administration): 0.35 ± 0.02 %ID/g
Spleen uptake (necrotic muscle [2]; 24 h after administration): 0.02 ± 0.00 %ID/g
Stomach uptake (necrotic muscle [2]; 24 h after administration): 0.09 ± 0.01 %ID/g
Thyroid uptake (necrotic muscle [2]; 24 h after administration): 0.33 ± 0.04 %ID/g
Viable.m (viable muscle) uptake (necrotic muscle [2]; 24 h after administration): 0.06 ± 0.00 %ID/g
necrotic/viable muscle ratio by quantitative autoradiography (necrotic muscle [3]): 9.16 ± 0.78

O=C(O)c1cc(O)c2c(c1)C(=O)c1ccc([131I])c(O)c1C2=O [^131I-rhein]
stability after incubation in rat plasma (TLC) [1]: 93.17% ± 0.38%
intact parent tracer after incubation in rat serum (radio-HPLC) [4]: 91.75% ± 0.47%
Blood uptake (necrotic muscle [2]; 2 h after administration): 3.14 ± 0.32 %ID/g
Heart uptake (necrotic muscle [2]; 2 h after administration): 0.47 ± 0.05 %ID/g
Kidney uptake (necrotic muscle [2]; 2 h after administration): 2.68 ± 0.47 %ID/g
Liver uptake (necrotic muscle [2]; 2 h after administration): 2.03 ± 0.21 %ID/g
Lung uptake (necrotic muscle [2]; 2 h after administration): 0.95 ± 0.06 %ID/g
N/V ratio (necrotic muscle/viable muscle) (necrotic muscle [2]; 2 h after administration): 5.84 ± 0.10
Necrotic.m (necrotic muscle) uptake (necrotic muscle [2]; 2 h after administration): 4.61 ± 0.39 %ID/g
Spleen uptake (necrotic muscle [2]; 2 h after administration): 0.97 ± 0.13 %ID/g
Stomach uptake (necrotic muscle [2]; 2 h after administration): 1.40 ± 0.16 %ID/g
Thyroid uptake (necrotic muscle [2]; 2 h after administration): 1.56 ± 0.17 %ID/g
Viable.m (viable muscle) uptake (necrotic muscle [2]; 2 h after administration): 0.79 ± 0.08 %ID/g
Blood uptake (necrotic muscle [2]; 12 h after administration): 1.20 ± 0.13 %ID/g
Heart uptake (necrotic muscle [2]; 12 h after administration): 0.28 ± 0.03 %ID/g
Kidney uptake (necrotic muscle [2]; 12 h after administration): 2.03 ± 0.12 %ID/g
Liver uptake (necrotic muscle [2]; 12 h after administration): 1.55 ± 0.12 %ID/g
Lung uptake (necrotic muscle [2]; 12 h after administration): 0.62 ± 0.05 %ID/g
N/V ratio (necrotic muscle/viable muscle) (necrotic muscle [2]; 12 h after administration): 7.26 ± 0.23
Necrotic.m (necrotic muscle) uptake (necrotic muscle [2]; 12 h after administration): 4.06 ± 0.16 %ID/g
Spleen uptake (necrotic muscle [2]; 12 h after administration): 0.65 ± 0.08 %ID/g
Stomach uptake (necrotic muscle [2]; 12 h after administration): 1.05 ± 0.11 %ID/g
Thyroid uptake (necrotic muscle [2]; 12 h after administration): 0.78 ± 0.07 %ID/g
Viable.m (viable muscle) uptake (necrotic muscle [2]; 12 h after administration): 0.56 ± 0.04 %ID/g
Blood uptake (necrotic muscle [2]; 24 h after administration): 0.15 ± 0.01 %ID/g
Heart uptake (necrotic muscle [2]; 24 h after administration): 0.08 ± 0.01 %ID/g
Kidney uptake (necrotic muscle [2]; 24 h after administration): 0.65 ± 0.07 %ID/g
Liver uptake (necrotic muscle [2]; 24 h after administration): 0.49 ± 0.05 %ID/g
Lung uptake (necrotic muscle [2]; 24 h after administration): 0.18 ± 0.03 %ID/g
N/V ratio (necrotic muscle/viable muscle) (necrotic muscle [2]; 24 h after administration): 12.33 ± 0.67
Necrotic.m (necrotic muscle) uptake (necrotic muscle [2]; 24 h after administration): 0.74 ± 0.04 %ID/g
Spleen uptake (necrotic muscle [2]; 24 h after administration): 0.29 ± 0.03 %ID/g
Stomach uptake (necrotic muscle [2]; 24 h after administration): 0.09 ± 0.02 %ID/g
Thyroid uptake (necrotic muscle [2]; 24 h after administration): 0.32 ± 0.06 %ID/g
Viable.m (viable muscle) uptake (necrotic muscle [2]; 24 h after administration): 0.06 ± 0.00 %ID/g
necrotic/viable muscle ratio by quantitative autoradiography (necrotic muscle [3]): 17.64 ± 1.28
radioactivity concentration in blood as share of peak radioactivity concentration ([5]; 6 h): 23.47% ± 1.91%
AUC(0 –∞) ([5]; i.v. 3.7 MBq, blood): 211.76 ± 31.18 MBq/L*h
CLZ (clearance) ([5]; i.v. 3.7 MBq, blood): 0.67 ± 0.17 mL/min/kg
Cmax ([5]; i.v. 3.7 MBq, blood): 42.40 ± 5.41 MBq/L
Tmax ([5]; i.v. 3.7 MBq, blood): 4.8 ± 0 min
VZ ([5]; i.v. 3.7 MBq, blood): 0.42 ± 0.06 L/kg
t1/2z (elimination half-life) ([5]; i.v. 3.7 MBq, blood): 8.20 ± 0.49 h
AUC(0 –t) ([5]; i.v. 3.7 MBq, within 24 h, blood): 187.46 ± 28.26 MBq/L*h
SPECT/CT imaging outcome in the heart (necrotic myocardium [6]): Relatively high uptake as a hot spot showed up in the heart of the model rat
activity in infarcted myocardium relative to viable myocardium (autoradiography) (infarcted myocardium): 14 fold
necrotic/viable myocardium ratio (necrotic myocardium [7]): about 9.81 ± 0.61
radioactivity concentration in blood (necrotic myocardium [7]; 6 h): 0.36 ± 0.03 %ID/g
radioactivity concentration in infarcted myocardium (necrotic myocardium [7]; 6 h): 1.18 ± 0.03 %ID/g
radioactivity concentration in kidney (necrotic myocardium [7]; 6 h): 0.68 ± 0.04 %ID/g
radioactivity concentration in liver (necrotic myocardium [7]; 6 h): 0.14 ± 0.01 %ID/g
radioactivity concentration in lung (necrotic myocardium [7]; 6 h): 0.24 ± 0.02 %ID/g
radioactivity concentration in viable myocardium (necrotic myocardium [7]; 6 h): 0.12 ± 0.01 %ID/g
